pIC50: −log10 of the molar value.
What was measured:
[1] = test system: HT-29 cells; assay: HT-29 tumor cell growth inhibition, SRB assay; assay type: cell-based, human; design: Growth Inhibition: key to the marks not given beside the values; settings: for Growth inhibitory activity % Inhibition at 100 μM: 100 μM single dose
[2] = test system: HT-29 colon adenocarcinoma cells; assay: Apoptosis by DNA fragmentation assay in HT-29 cells; assay type: cell-based, human
[3] = test system: COX; assay: COX inhibition; assay type: biochemical
[4] = test system: cGMP-PDE; assay: cGMP-PDE inhibition assay, enzyme from HT-29 cultured tumor cells; assay type: biochemical, human; settings: for cGMP PDE % Inhibition at 100 μM: 100 μM (test compounds)
[5] = test system: premalignant lesions in mouse mammary gland organ culture; assay: Mammary gland organ culture model, DMBA-induced premalignant lesions; settings: for inhibition of formation of premalignant lesions: mammary gland organ culture
Experimental: For example, female BALB/c mice can be treated with a combination of estradiol and progesterone daily, in order to prime the glands to be responsive to hormones in vitro. The animals are sacrificed and thoracic mammary glands are excised aseptically and incubated for ten days in growth media supplemented with insulin, prolactin, hydrocortisone, and aldosterone. DMBA (7,12-dimethylbenz(a)anthracene) is added to medium to induce the formation of premalignant lesions. Fully developed lands are then deprived of prolactin, hydrocortisone, and aldosterone, resulting in the regression of the glands but not the pre malignant lesions.
The test compound is dissolved in DMSO and added to the culture media for the duration of the culture period. At the end of the culture period, the glands are fixed in 10% formalin, stained with alum carmine, and mounted on glass slides. The extent of the area occupied by the mammary lesions can be quantitated by projecting an image of the gland onto a digitation pad. The area covered by the gland is traced on the pad and considered as 100% of the area. The space covered by each of the unregressed structures is also outlined on the digitization pad and quantitated by the computer.
The incidence of forming mammary lesions is the ratio of the glands with mammary lesions to […]. The incidence of mammary lesions in test compound treated glands is compared with that of the untreated glands.
Mammary gland organ culture experiments were performed as previously described (Mehta and Moon, Cancer Research, 46: 5832-5835, 1986). […] The data support the hypothesis that cyclooxygenase inhibition is not necessary for the anti-neoplastic properties of desired compounds.

[6] = test system: PDE peak B (novel cGMP-PDE); assay: cGMP hydrolysis by PDE peak B isolated from SW-480 cells; assay type: biochemical, human
[7] = test system: HT-29 cells; assay: Cyclic nucleotide (cGMP, cAMP) levels in HT-29 cells by radioimmunoassay; assay type: cell-based, human; settings: HT-29 cells treated 30 minutes
Experimental: The amount of PDE activity can be determined by assaying for the amount of cyclic GMP in the extract of treated cells using a radioimmunoassay (RIA). In this procedure, a neoplastic cell line is incubated with a test compound. […]
It has been observed that a compound which is useful in the practice of this invention (i.e.. one that selectively induces apoptosis in neoplastic cells, but not substantially in normal cells) follows a time course consistent with cGMP-specific PDE inhibition. […] The intracellular targets of these drug actions are being studied further, but current data support the concert that the initial rise in cGMP content and the subsequent fall in cGMP content precede apoptosis in neoplastic cells exposed to test compounds useful in this invention. To determine the cyclic AMP content in cell extracts, radioimmunoassay techniques similar to those described above for cGMP are used.

[8] = test system: HT-29 cells; assay: Apoptosis and necrosis by morphology (acridine orange/ethidium bromide) in HT-29 cells; assay type: cell-based, human; settings: 120 μM, time course
Experimental: Growth inhibition (FIG. 9A, top) was measured by counting viable cells after trypan blue staining. Apoptosis (FIG. 9B, bottom) was measured by morphological determination following staining with acridine orange and ethidium bromide as described previously and Cohen, In: Current Protocols in Immunology, 3.17.1-3.17.16 New York, John Wiley and Sons, 1992). […] All data were collected from the same experiment.
Following treatment with a test compound, cultures can be assayed for apoptosis and necrosis by fluorescent microscopy following labeling with acridine orange and ethidium bromide. […]
Reference compounds and test compounds were analyzed for their cGMP-specific PDE inhibitory activity in accordance with the protocols for the assay, supra. […] Apoptotic and necrotic cell death was determined as previously described (Duke and Cohen, In: Current Protocols in Immunology, 3.17.1-3.17.16, New York. John Wiley and Sons, 1992). […]
The apoptosis inducing activity for a series of phosphodiesterase inhibitors was determined. […] Apoptosis and necrosis were determined morphologically after acridine orange and ethidium bromide labeling in accordance with the assay described supra.

[9] = target: T1, PDE peak A (PDE5) (Homo sapiens, UniProt O76074); assay: cGMP hydrolysis by PDE peak A isolated from SW-480 cells; assay type: biochemical
T1 construct: SW-480 cells are collected and homogenized; The homogenate is centrifuged, and the supernatant is loaded onto a DEAE-Trisacryl M column; endogenous in cells; host or cells: SW-480 human colon adenocarcinoma cells (DEAE-Trisacryl M fraction, peak A)

[10] = reversible; cited from earlier work

CC1=C(CC(=O)O)c2cc(F)ccc2/C1=C\c1ccc(Cl)cc1 [C, (Z)-5-Fluoro-2-methyl-1-(p-chlorobenzylidene)-3-acetic acid]
Growth inhibitory activity % Inhibition at 100 μM [1]: 80%

COc1cc(/C=C2/C(C)=C(CC(=O)NCc3ccccc3)c3cc(F)ccc32)cc(OC)c1OC [Compound E, (Z)-5-Fluoro-2-methyl-1-(3,4,5-trimethoxybenzylidene)-3-indenylacetamide, N-benzyl]
apoptosis induction in neoplastic cells [2]: induce apoptosis in neoplastic cells

COc1cc(C=C2C(C)=C(CC(=O)O)c3cc(F)ccc32)cc(OC)c1OC [Compound B, (Z)-5-Fluoro-2-methyl-1-(3,4,5-trimethoxybenzylidene)-3-acetic acid]
COX Inhibition ([3]; 100 μM): did not inhibit COX | COX Inhibition ([3]; activity profile): − | cGMP PDE % Inhibition at 100 μM [4]: <25%

CC(=O)N[C@@H](CSC12CC(=O)OC1(C)/C(=C/c1ccc(S(C)(=O)=O)cc1)c1ccc(F)cc12)C(=O)O (mixture of isomers) [D, rac-(E)-1-(butan-1′,4′-olide)-[3′,4′:1,2]-6-fluoro-2-methyl-3-(p-methylsulfonylbenzylidene)-1S-indanyl-N-acetylcysteine]
Mammary Gland Organ Culture ([5]; activity profile): − | COX Inhibition ([3]; activity profile): − | Apoptosis ([2]; activity profile): − | Growth inhibitory activity % Inhibition at 100 μM [1]: 78% | Growth Inhibition ([1]; activity profile): ++ | PDE Inhibition ([4]; activity profile): −

CC1(C)C(=O)Nc2ccc(C3=NNC(=O)CC3)cc21 [Indolidan]
sensitivity of the new cGMP-PDE (peak B) to inhibition [6]: relatively insensitive

CCN(CC)CCSC12CC(=O)OC1(C)/C(=C/c1ccc(S(C)(=O)=O)cc1)c1ccc(F)cc12 (racemic) [A, rac-threo-(E)-1-(N,N′-diethylaminoethanethio)-1-(butan-1′,4′-olido)-[3′,4′:1,2]-6-fluoro-2-methyl-3-(p-methylsulfonylbenzylidene)-indan]
COX Inhibition ([3]; activity profile): − | Apoptosis inducing activity, Fold induction at 100 μM ([2]; 100 μM): <2.0 fold | Growth inhibitory activity % Inhibition at 100 μM [1]: 68% | cGMP PDE % Inhibition at 100 μM [4]: <25%

CCCOc1ccccc1-c1nc2nn[nH]c2c(=O)[nH]1 [Zaprinast]
sensitivity of the new cGMP-PDE (peak B) to inhibition [6]: relatively insensitive | apoptosis induction in neoplastic cells [2]: do not have significant apoptosis-inducing | growth inhibition of neoplastic cells [1]: do not have significant apoptosis-inducing (Table 6) or growth-inhibiting

CSc1ccc(/C=C2/C(C)=C(CC(=O)O)c3cc(F)ccc32)cc1 [Sulindac sulfide]
inhibition of formation of premalignant lesions [5]: inactive | apoptosis induction in neoplastic cells [2]: induce apoptosis in neoplastic cells | increase in levels of cGMP [7]: greater than 50% | pIC50 ([7]; Homo sapiens, 0.5 h, read-out: IC50 value for increase of cGMP levels): 5.14 | apoptosis, morphological determination [8]: an increase in apoptosis

O=C([O-])C1CCN(c2nc(NCc3ccc4c(c3)OCO4)c3cc(Cl)ccc3n2)CC1.[Na+] [Compound E4021]
sensitivity of the new cGMP-PDE (peak B) to inhibition [6]: relatively insensitive | apoptosis induction in neoplastic cells [2]: do not have significant apoptosis-inducing | growth inhibition of neoplastic cells [1]: do not have significant apoptosis-inducing (Table 6) or growth-inhibiting | Growth inhibitory activity % Inhibition at 100 μM [1]: <50%

COc1ccc(C2CNC(=O)C2)cc1OC1CCCC1 (centres unmarked) [Rolipram]
sensitivity of the new cGMP-PDE (peak B) to inhibition [6]: relatively insensitive

CCOC(=O)C1=C[C@]2(CC)CCCN3CCc4c(n1c1ccccc41)[C@@H]32 [Vinpocetine]
sensitivity of the new cGMP-PDE (peak B) to inhibition [6]: relatively insensitive

CC1=C(CC(=O)O)c2cc(F)ccc2/C1=C\c1ccc(S(C)(=O)=O)cc1 [Exisulind, (Z)-5-fluoro-2-methyl-1-[[4-(methylsulfonyl)phenyl]methylene]indene-3-yl acetic acid]
inhibition of formation of premalignant lesions [5]: effectively inhibit the formation of premalignant lesions | inhibition of peak A / PDE5 activity [9]: inhibits both PDES and the new cGMP-PDE | sensitivity of the new cGMP-PDE (peak B) to inhibition [6]: inhibits both PDES and the new cGMP-PDE | side effects at doses higher than the recommended therapeutic levels [10]: elevated levels of liver enzymes

CCCc1nn(C)c2c(=O)[nH]c(-c3cc(S(=O)(=O)N4CCN(C)CC4)ccc3OCC)nc12 [Sildenafil]
inhibition of peak A / PDE5 activity [9]: inhibited activity of peak A | apoptosis induction in neoplastic cells [2]: do not have significant apoptosis-inducing | growth inhibition of neoplastic cells [1]: do not have significant apoptosis-inducing (Table 6) or growth-inhibiting

CC1=C(CC(=O)O)c2cc(F)ccc2/C1=C/c1ccc([S+](C)[O-])cc1 (centres unmarked) [sulindac sulfoxide]
inhibition of formation of premalignant lesions [5]: effectively inhibit the formation of premalignant lesions
